From patent publication US20100004244A1, “USE OF CB2 RECEPTOR AGONISTS FOR PROMOTING NEUROGENESIS” (priority 2006, published 2010)

Columns and labels:
[1] = test system: neural progenitors; test: Neurosphere generation and self-renewal of neural progenitors; format: cell-based, mouse; details: for neurosphere generation in CB2-deficient neural progenitors / primary neurosphere generation / neural progenitor self-renewal: 30 nM; for primary neurosphere generation: wild-type E17.5 progenitors, 7 days; for neural progenitor self-renewal: wild-type progenitors, 5 consecutive passages, FIG. 3C
Procedure: Multipotent self-renewing progenitors were obtained from the dissected cortices of mice at the indicated developmental stages and grown in chemically-defined medium constituted by Dulbecco's modified Eagle's and F12 media supplemented with N2 (Invitrogen), 0.6% glucose, non-essential amino acids, 50 mM Hepes, 2 μg/ml heparin, 20 ng/ml epidermal growth factor and 20 ng/ml basic fibroblast growth factor [Aguado, T. et al., J. Neurosci. 26, 1551-61, 2006]. Clonal neurospheres were cultured at 1000 cells/ml, dissociated with accutase (Sigma-Aldrich, Missouri, USA) and experiments were carried out with early (up to 10) passage neurospheres. Neurosphere generation experiments were performed in 96-well dishes with 100 μl of medium, and the number of neurospheres was quantified at predetermined time points by phase-contrast microscopy. Embryonic neural progenitors from wild-type and CB2-deficient mice were cultured (10,000 cells/ml) in the continuous presence of cannabinoids or controls for the indicated number of passages (one passage every 4 days).
Adult neural progenitors were obtained from hippocampi of 4-month-old adult mice and cultured as described above. Neural progenitor cell differentiation was performed as described.

[2] = test system: neural progenitors; test: BrdU cell proliferation assay in dissociated neurospheres; format: cell-based, mouse; details: for number of BrdU-incorporating cells: 30 nM, 16 hours, FIG. 3D; for effect on HU-308 induction of cell proliferation: PD98059 10 μM, LY294,002 5 μM, with HU-308 30 nM, FIG. 3E, confirmed in neurosphere generation assays
Procedure: These studies involve the use of bromodeoxyuridine (BrdU), a thymidine analog incorporated into DNA during the S phase of the cell cycle, which allows visualizing cell proliferation. Neural progenitor proliferation was determined by quantifying BrdU-positive cells 16 hours after incubation with 10 μg/ml BrdU, followed by immunostaining [Aguado, T. et al., FASEB J. 19, 1704-6, 2005].
Results are expressed as percentage of BrdU-positive cells over total cells.

[3] = test system: ERK and Akt; test: ERK and Akt phosphorylation in neural progenitors (Western blot); format: cell-based, mouse; details: FIG. 3F
Procedure: Identical protein amounts of cleared cell extracts were subjected to SDS-PAGE, transferred to PVDF membranes, and following antibody incubations developed with enhanced chemiluminiscence detection kit [Aguado, T. et al., FASEB J. 19, 1704-6, 2005]. Loading controls were performed with an anti-α-tubulin antibody.

[4] = test system: neural progenitor cell proliferation in the dentate gyrus; test: In vivo hippocampal neural progenitor proliferation (BrdU-positive cells in dentate gyrus); set-up: species or system mouse; details: FIG. 4B; for hippocampal progenitor proliferation in vivo: wild-type adult mice, i.p. 5 consecutive days, HU-308 15 mg/kg, SR144528 1 mg/kg
Procedure: Adult CB2 receptor knock-out male mice (8-week old) and their respective wild-type littermates were injected i.p. with 50 mg/kg BrdU daily for 3 days, and perfused 1 day later. […] Control animals received the corresponding vehicle injection (100 μl PBS supplemented with 0.5 mg defatted bovine serum albumin and 4% dimethylsulfoxide). BrdU was administered daily during the pharmacological administration period. In the case of experiments on kainate-induced excitotoxicity, animals were injected with 15 mg/kg kainate or vehicle. E17.5 mouse embryos from mothers injected twice with 100 mg/kg BrdU (30-min interval between injections) were obtained 1 h after the first injection.
At the end of the study, animals were euthanized and their brains were fixed into 4% paraformaldehyde in PBS until further analysis.
Mice were perfused and immunostaining was performed in 30-μm brain coronal free-floating sections [Rueda, D. et al., J. Biol. Chem. 277, 4645-50, 2002]. Sections were incubated with polyclonal anti-CB2 antibody together with anti-nestin, anti-Neu, or anti-GFAP antibodies followed by secondary staining for rabbit and mouse IgGs with highly cross-adsorbed AlexaFluor 594 and AlexaFluor 488 secondary antibodies (Molecular Probes), respectively. Neural progenitor proliferation was determined with anti-BrdU antibody and secondary anti-rat IgG-AlexaFluor 594 in sections counterstained with TOTO-3 iodide. Preparations were examined using Leica software and SP2 AOBS microscope with 2 passes with a Kalman filter and a 1024×1024 collection box. BrdU^+ cells were counted in the subgranular zone and granule cell layer of the dentate gyrus. A 1-in-6 series of adult hippocampal mouse sections located between 1.3 and 2.1 mm posterior to bregma were employed. […] Frozen mouse embryo sections were incubated with anti-BrdU antibody together with Yoyo-1 iodide, and positive cells were determined in 7 sections per animal.
Results are expressed as number of BrdU positive cells per section in the dentate gyrus of the animals.

[5] = target: human CB1 receptors (Homo sapiens, UniProt P21554); details: read-out: IC50 for binding to human CB1 receptors; as disclosed in WO 03/064359; cited from earlier work
human CB1 receptors, sequence (P21554 whole entry): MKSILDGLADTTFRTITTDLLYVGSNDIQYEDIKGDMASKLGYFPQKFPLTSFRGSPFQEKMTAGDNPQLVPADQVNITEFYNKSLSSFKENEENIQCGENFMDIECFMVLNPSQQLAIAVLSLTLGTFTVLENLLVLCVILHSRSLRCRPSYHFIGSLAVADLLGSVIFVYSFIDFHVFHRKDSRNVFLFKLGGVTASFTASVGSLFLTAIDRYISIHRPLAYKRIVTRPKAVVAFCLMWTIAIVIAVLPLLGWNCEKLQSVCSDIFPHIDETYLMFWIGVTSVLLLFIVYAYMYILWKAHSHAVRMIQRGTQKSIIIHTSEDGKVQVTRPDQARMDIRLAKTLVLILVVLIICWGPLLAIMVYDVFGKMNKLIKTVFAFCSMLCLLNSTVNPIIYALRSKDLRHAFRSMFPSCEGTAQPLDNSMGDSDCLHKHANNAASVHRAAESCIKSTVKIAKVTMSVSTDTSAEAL

[6] = test system: substantia nigra; details: mice treated with the neurotoxin MPTP; cited from earlier work
[7] = test system: basal ganglia; details: cited from earlier work
[8] = test system: embryonic hippocampal neural progenitor cells; details: Jiang et al. 2005; cited from earlier work
[9] = test system: newborn neurons; details: chronic administration, Jiang et al. 2005; cited from earlier work
[10] = test system: cannabinoid receptors; details: cited from earlier work

## CCCCCCC(C)(C)c1cc(OC)c(C2C=C(CO)C3CC2C3(C)C)c(OC)c1 (single isomer, unassigned; (+)) [HU-308, (+) {4-[4-(1,1-dimethylheptyl)-2,6-dimethoxyphenyl]-6,6-dimethyl-bicyclo[3.1.1]hept-2-en-2-yl}-methanol]
[1]; FIG. 3B
  neurosphere generation in CB2-deficient neural progenitors: neither HU-308 nor JWH-133 was able to enhance neurosphere generation
  primary neurosphere generation: increased
[1]
  neural progenitor self-renewal: increased
[2]
  number of BrdU-incorporating cells: increased the number of BrdU-incorporating cells in a CB2-dependent manner
[3]; 15 min (ERK) or 2 min (Akt)
  ERK and Akt phosphorylation: stimulated ERK and Akt
[4]; CB2-/- adult mice, 15 mg/kg i.p. 5 days
  hippocampal progenitor proliferation in CB2-deficient mice: lack of HU-308 agonistic effect
[4]
  hippocampal progenitor proliferation in vivo: increased progenitor proliferation
[5]
  IC50: 3.6 µM
[6]
  extent of cell death in the substantia nigra: reduces the extent of cell death
[7]; non-lesioned side
  GABA level and dopamine transmission in the non-lesioned side: did not alter the parameters monitored
[7]; rats, intrastriatal injection of malonate
  extent of cell death in the basal ganglia: reduces the extent of cell death

## CCCCCCC(C)(C)c1cc(O)c2c(c1)OC(C)(C)[C@@H]1CC=C(CO)C[C@@H]21 [HU-210, 7-hydroxy-Δ^6-tetrahydrocannabinol-1,1-dimethyl-heptyl]
[8]
  proliferation and differentiation of embryonic hippocampal neural progenitor cells: promotes proliferation of said embryonic cells without affecting their differentiation
[9]
  measures of anxiety- and depression-like behavior: reduced measures of anxiety- and depression-like behavior
  number of newborn neurons: increased the number of newborn neurons

## CCCCCCC(C)(C)c1cc(O)c2c(c1)OC(C)(C)[C@@H]1CC=C(CO)C[C@@H]21 [HU-211, 7-hydroxy-Δ^6-tetrahydrocannabinol-1,1-dimethyl-heptyl]
[10]
  affinity to the cannabinoid receptors: low affinity

## CCCC(C)(C)c1ccc2c(c1)OC(C)(C)[C@@H]1CC=C(C)C[C@@H]21 [JWH-133]
[1]; FIG. 3B
  neurosphere generation in CB2-deficient neural progenitors: neither HU-308 nor JWH-133 was able to enhance neurosphere generation
  primary neurosphere generation: increased
[1]; adult progenitors
  percentage of neurosphere number relative to vehicle incubations: 149±6%
[1]; postnatal progenitors
  percentage of neurosphere number relative to vehicle incubations: 154±22%
[1]
  neural progenitor self-renewal: increased
[2]
  number of BrdU-incorporating cells: increased the number of BrdU-incorporating cells in a CB2-dependent manner

## O=c1cc(N2CCOCC2)oc2c(-c3ccccc3)cccc12 [LY294,002]
[2]
  effect on HU-308 induction of cell proliferation: prevented by both inhibitors

## COc1cccc(-c2cc(=O)c3ccccc3o2)c1N [PD98059]
[2]
  effect on HU-308 induction of cell proliferation: prevented by both inhibitors

## SR144528
[1]; 2 μM with HU-308 or JWH-133 30 nM, FIG. 3B, 3C
  effect on agonist-increased primary neurosphere generation and self-renewal: both actions were prevented
[1]; data not shown
  effect on agonist-increased neurosphere generation in postnatal and adult progenitors: this action was prevented
[3]
  effect on HU-308 stimulation of ERK and Akt: this action was prevented
[4]
  hippocampal progenitor proliferation in vivo: exerted the opposite action
